Measured values published in patent publication US20140038920A1, “TFEB PHOSPHORYLATION INHIBITORS AND USES THEREOF” (FONDAZIONE TELETHON, priority 2011, published 2014).

Experiments:
[1] = tested on: long-lived protein degradation in TFEB-overexpressing cells; test: Degradation of long-lived proteins (FIG. 8); type: cell-based; details: 3-MA added during 4 h incubation
Method: FIG. 8 TFEB increases autophagic proteolysis. Rate of long-lived protein degradation in TFEB-overexpressing, TFEB-depleted and control cells in either normal or starved condition. 3-methyl adenine (3MA) was added where indicated (Error bars represent standard deviations. p value (*)<0.05).
Sub-confluent cells were incubated with L-U^14C-serine for 20 h and chased for 1 h with cold media to degrade short-lived proteins. Subsequently cells were incubated with either normal media or starvation media (eventually in the presence of 3-MA) for 4 h. The rate of long-lived protein degradation was calculated from the ratio of soluble radioactivity in the media to that insoluble in the acid-precipitable cell pellet.
The applicants next measured the rate of delivery of autophagosome to lysosome using an RFP-GFP tandem tagged LC3 protein (9), which discriminates early autophagic organelles (GFP-positive/mRFP-positive) from acidified autolysosomes (GFP-negative/mRFP-positive), as the GFP signal (but not the mRFP) is quenched inside acidic compartments (9). […] Functional evidence of TFEB role in the regulation of autophagy came from the observation that degradation of long-lived proteins was enhanced by TFEB overexpression, and reduced by TFEB knock-down. This enhancement was abolished by the autophagy inhibitor 3-methyl adenine (3-MA) (10) (FIG. 8).

TFEB [2] = test: Lysosomal stress: TFEB-3xFLAG nuclear/cytoplasmic fractionation immunoblot in HeLa and HEK-293T cells (FIG. 18); type: cell-based; details: treated overnight; chloroquine 100 μM, Salicylihalamide A 2 μM
From the text: FIG. 18 Lysosomal stress induces TFEB nuclear translocation. […] Histone 3 (H3) and tubulin were used as nuclear and cytosolic markers, respectively. Blots are representative of triplicate experiments.
(§1) The mouse anti-TFEB monoclonal antibody was purchased from My Biosource catalogue No. MBS 120432. To generate anti-pS142 specific antibodies, rabbits were immunized with the following peptide coupled to KLH: AGNSAPN{pSer}[…]. Following the fourth immunization, rabbits were sacrificed and the serum was collected. Non-phosphospecific antibodies were depleted from the serum by circulation through a column containing the nonphosphorylated antigene. The phosphospecific antibodies were subsequently purified using a column containing the phosphorylated peptide. Cells were lysed with M-PER buffer (Thermo) containing protease and phosphatase inhibitors (Sigma); nuclear/cytosolic fractions were isolated as above described. Proteins were separated by SDS-PAGE (Invitrogen; reduced NuPAGE 4-12% Bis-tris Gel, MES SDS buffer). If needed, the gel was stained using 20 ml Imperial Protein Stain (Thermo Fisher) at room temperature for 1 h and de-stained with water. […]
TFEB subcellular localization was then analysed in HeLa and HEK-293T cells transiently transfected with a TFEB-3×FLAG plasmid and treated overnight with inhibitors of lysosomal function.

mTORC1 = mTORC1 activity by level of p-P70S6K in HeLa cells treated overnight (FIG. 19A); type: cell-based
Method: (§2) Immunoblotting of protein extracts isolated from HeLa cells treated overnight, as indicated. Membranes were probed with antibodies for p-T202/Y204-ERK1/2, ERK1/2, p-T389-S6K, and S6K to measure ERK and mTORC1 activities. […] FLAG immunoblotting of cytosolic and nuclear fractions isolated from TFEB-3×FLAG HeLa cells cultured in amino acid-free media and subsequently stimulated as indicated for at least 3 h. Correct subcellular fractionation was verified with H3 and tubulin antibodies. […] After 3 h at 37° C. in RPMI medium containing one of each of the compounds, the cells were washed, fixed, and stained with DAPI and photographed by using confocal automated microscopy (Opera high content system, Perkin Elmer). […] Scale bars represent 30 μm. […] The EC50 for each compound was calculated using Prism software (see Materials and Methods for details). […] Antibody used were p-T389-S6K, S6K and FLAG. […] HeLa cells stably expressing Flag-3×TFEB were infected with lentiviruses encoding a Short hairpin (Sh-) RNA targeting luciferase (control) or RagC and RagD mRNAs. […] TFEB localization was detected with a FLAG antibody, whereas tubulin and H3 were used as controls for the cytosolic and nuclear fraction, respectively; levels of S6K phosphorylation were used to test RagC and RagD knockdown efficiency.

TFEB [3] = test: High content TFEB-GFP nuclear translocation assay; type: cell-based; details: Homo sapiens; TFEB-GFP HeLa cells, 3 h, ten concentrations 2.54 nM to 50 μM (FIG. 19D); read-out: EC50, TFEB nuclear translocation
Method: as §2
After 3 hours at 37° C. in RPMI medium cells were washed, fixed, and stained with DAPI. For the acquisition of the images, ten pictures per each well of the 384-well plate were taken by using confocal automated microscopy (Opera high content system, Perkin Elmer). A dedicated script was developed to perform the analysis of TFEB localization on the different images (Acapella software, Perkin Elmer). The script calculates the ratio value resulting from the average intensity of nuclear TFEB-GFP fluorescence divided by the average of the cytosolic intensity of TFEB-GFP fluorescence. The results were normalized using negative (RPMI medium) and positive (HBSS starvation) control samples in the same plate. The data are represented by the percentage of nuclear translocation at the different concentrations of each compound using Prism software (GraphPad software). The EC50 for each compound was calculated using non-linear regression fitting (Prism software).
In order to find additional small molecules able to induce the translocation of TFEB from the cytosol to the nucleus, the applicants developed a cell-based high content assay using stable HeLa cells overexpressing TFEB fused to the green fluorescent protein (TFEB-GFP). In the assay imaging of treated cells is acquired by an automated confocal microscope (OPERA system) and the analysis of those images with Acapella image software calculates the ratio of the average of fluorescence intensity of TFEB-GFP between the cytosol and nucleus of the cell (see Materials and methods for details). […] They tested ten concentrations for each inhibitor.

TFEB [4] = test: TFEB nuclear localization in starved HeLa cells overexpressing TFEB, re-stimulated with media plus supplements or inhibitors (nuclear fractionation, Flag blot, immunofluorescence); type: cell-based; details: for TFEB nuclear translocation compared to starved media alone: EBSS media supplemented with growth factor or cytokine (FIG. 2f)
From the text: (A) Scatter Plot graphs displaying the logarithmic value of the fold change differences in the relative expression levels of 51 autophagy-related genes in HeLa cells cultured in different conditions. X-axis=control group. Y-axis=treated group. Circles represent genes with increased (red) or decreased (green) fold change. Comparisons were as indicated. (B) Chromatin immunoprecipitation (ChIP) analysis. […] Values were normalized to the input and plotted as relative enrichment over a mock control. Experiments were performed in triplicate. (C) qPCR analysis of TFEB-target gene expression in normal, starved, and in TFEB-siRNA starved cells. GAPDH and HPRT represents housekeeping genes, while ATG10, ATG9A and ATG4D represent control genes (non-TFEB target genes). (D-F) HeLa cells stably overexpressing TFEB were left untreated or nutrient starved for 4 h. (D) Five fields containing 50-100 cells/each were analyzed for TFEB nuclear localization. […] (E) Cells were subjected to nuclear/cytosolic fractionation and blotted with Flag antibody. H3 and tubulin were used as nuclear and cytosolic markers, respectively. (F) Nuclear fractions were blotted with Flag and H3 (loading control) antibodies. (G) Western blot analysis of Flag, tubulin and H3 in nuclear extracts prepared from normal, starved and starved/stimulated with normal media cells for 1 h (normal) or pretreated with AP-2 (AKT inhibitor), Rapamycin (mTOR inhibitor) and U0126 (MEK inhibitor) 1 h prior to media stimulation. Total extracts were used to verify the efficiency of the inhibitors. […] Starvation was performed where indicated. (All error bars represent standard deviations. T-test (unpaired) p value (*)<0.05, (**)<0.01)
Cytosolic and nuclear fractions were subjected to Flag immunoblotting. […] Error bars represent standard deviations.
Cells were seeded at 50% of confluence in 6 well dishes and serum starved overnight (ON). Normal medium was added the following day either in presence of DMSO or kinase inhibitors. Subcellular fractionation was carried out as previously reported.
To identify the mechanism of starvation-induced activation of TFEB, the applicants analyzed its subcellular localization and post-translational modifications in starved cells.

TFEB [5] = test: TFEB molecular weight shift and localization in TFEB-3xFLAG HeLa cells stimulated with amino-acid rich medium plus inhibitor (FIG. 19B); type: cell-based; details: Torin 1 250 nM, Rapamycin 2.5 μM, U0126 50 μM
Method: FIG. 19 mTORC1 regulates TFEB. (A) Lysosomal stress inhibits mTOR signaling. Immunoblotting of protein extracts isolated from HeLa cells treated overnight, as indicated. Membranes were probed with antibodies for p-T202/Y204-ERK1/2, ERK1/2, p-T389-S6K, and S6K to measure ERK and mTORC1 activities. […] FLAG immunoblotting of cytosolic and nuclear fractions isolated from TFEB-3×FLAG HeLa cells cultured in amino acid-free media and subsequently stimulated as indicated for at least 3 h. Correct subcellular fractionation was verified with H3 and tubulin antibodies. (C, D) Effects and dose—response curves of ERK and mTOR inhibitors on TFEB nuclear translocation. […] After 3 h at 37° C. in RPMI medium containing one of each of the compounds, the cells were washed, fixed, and stained with DAPI and photographed by using confocal automated microscopy (Opera high content system, Perkin Elmer). (C) Representative images of test concentrations for each compound. Scale bars represent 30 μm. […] The EC50 for each compound was calculated using Prism software (see Materials and Methods for details). (E) Amino acids induce TFEB molecular weight shift. Immunoblotting of protein extracts isolated from HEK-293T cells transfected either TFEB-3×FLAG or with an empty vector were nutrient starved and stimulated for 50 minutes with amino acids (a.a.). Antibody used were p-T389-S6K, S6K and FLAG. (F) Rag knockdown induces TFEB nuclear translocation. HeLa cells stably expressing Flag-3×TFEB were infected with lentiviruses encoding a Short hairpin (Sh-) RNA targeting luciferase (control) or RagC and RagD mRNAs. […] TFEB localization was detected with a FLAG antibody, whereas tubulin and H3 were used as controls for the cytosolic and nuclear fraction, respectively; levels of S6K phosphorylation were used to test RagC and RagD knockdown efficiency.
as §1

mTOR = mTOR (Mus musculus, UniProt Q9JLN9); details: primary hepatocytes treated overnight
From the text: (§3) Subsequently, cells were lysed and protein extracts were immunoblotted with the indicated antibodies. […] Quantitative PCR (qPCR) of TFEB target genes in primary hepatocytes from control (flox/flox) and Tcfeb−/− (flox/flox; alb-Cre) mice. […] The expression levels are shown as % increased expression of the treated versus the corresponding untreated samples. Values represent means±s.d. of three independent hepatocyte preparations (three mice/genotype). Student's t-test (two tailed) *P-value ≦0.05.

TFEB target genes = test: qPCR of TFEB target genes in primary hepatocytes (FIG. 21B, C); type: cell-based, mouse; details: hepatocytes from TFEB conditional knockout mice (Tcfebflox/flox; alb-CRE)
From the text: as §3

Cn1cnc(N)c2ncnc1-2 [3-methyl adenine]
enhancement of long-lived protein degradation by TFEB overexpression [1]: abolished

CC/C=C\C=C/C(=O)N/C=C/C[C@H]1C[C@@H](O)[C@@H](C)C/C=C/Cc2cccc(O)c2C(=O)O1 [Salicylihalamide A]
nuclear translocation of exogenously expressed TFEB (TFEB [2]): induced nuclear translocation | mTORC1 activity as level of p-P70S6K (mTORC1): inhibited mTORC1 activity

N#CC(=C(/N)Sc1ccccc1N)/C(C#N)=C(\N)Sc1ccccc1N [U0126]
EC50 (TFEB [3]): 80.4 µM | TFEB nuclear localization (TFEB [4]; starved cells stimulated with normal medium supplemented with kinase inhibitor (FIG. 2g, 11b)): TFEB nuclear localization, at level similar to starvation | TFEB molecular weight shift induced by nutrients (TFEB [5]): only a partial TFEB molecular weight shift

CCN(CC)CCCC(C)Nc1ccnc2cc(Cl)ccc12 (stereo not shown) [chloroquine]
nuclear translocation of exogenously expressed TFEB (TFEB [2]): induced nuclear translocation | mTORC1 activity as level of p-P70S6K (mTORC1): inhibited mTORC1 activity | mTOR activity as level of p-S6K (mTOR): inhibited mTOR | transcriptional response of TFEB target genes versus control hepatocytes (TFEB target genes): significantly blunted

EGF: growth factor supplemented to EBSS media (NSDSECPLSHDGYCLHDGVCMYIEALDKYACNCVVGYIGERCQYRDLKWWELR; UniProt P01133 971-1023, looked up)
TFEB nuclear translocation compared to starved media alone (TFEB [4]): significant inhibition

LIF: cytokine supplemented to EBSS media
TFEB nuclear translocation compared to starved media alone (TFEB [4]): Almost no effect

insulin
TFEB nuclear translocation compared to starved media alone (TFEB [4]): significant inhibition
